# Source: patent US8846653B2, “Delta-tocotrienol treatment and prevention of pancreatic cancer” (University of South Florida, priority 2006, dated 2014)
# Columns and labels:
# Type in all cases: cell-based, human
# [1] = test system: MiaPaCa2 pancreatic cancer cells; assay: Malignant transformation (Soft Agar) colony formation; conditions: MiaPaCa2, 50 μM, vs vehicle
# Protocol: FIG. 20 is a graph showing the effect of tocotrienols on pancreatic cancer malignant transformation (Soft Agar). […] Bars, SE (n=3). *p<0.001 vs. vehicle. **p<0.02 vs. vehicle. ***p<0.05 vs. vehicle. T=tocopherol, T3=tocotrienol.
# MiaPaCa2 cells (3×10^3) were cultured as described in the Examples above, in 96-well plates and treated with 50 μM of different tocopherol or tocotrienol.
# MIA PaCa-2 cells = assay: Trypan blue cell death, δ-tocotrienol, 5-FU or combination, 24 hours; conditions: MIA PaCa-2, 50 μM each
# Protocol: MIA PaCa-2 cells were treated vehicle or an anti-proliferative treatment comprising 50 μM δ-tocotrienol, 50 μM 5-FU, or 50 μM δ-tocotrienol and 50 μM 5-FU for 24 hours. Cells were harvested, fixed, permeablized and stained with trypan blue.
# MIA PaCa2 cells = assay: MTT cell viability, δ-tocotrienol, fluorouracil or combination
# Protocol: FIG. 39 is a graph MIA PaCa2 pancreatic cancer cells (3×10^3) treated with indicated concentrations of delta-tocotrienol, fluorouracil (5FU), or a combination of the indicated delta-tocotrienol and 5FU.
# The MiaPaCa 2 cells were plated as above into 96 well plates and treated the following day with increasing concentrations of δ-tocotrienol, fluorouracil (5FU), or a combination of δ-tocotrienol and fluorouracil. The cells were collected and analyzed for cell viability using an MTT assay. […] MIA PaCa2 cells (3×10^3) were cultured as described in the Examples above, in 96-well plates and treated the following day with vehicle, δ-tocotrienol, fluorouracil, or a combination of δ-tocotrienol and fluorouracil.
# [2] = test system: MIA PaCa-2 cells (pZWL vector and myrAKT); assay: Cell death (trypan blue) in vector and myrAKT MIA PaCa-2 cells; conditions: MIA PaCa-2 vector vs myr-AKT cells, 24 hours, compared to vehicle
# Protocol: FIG. 12 is a graph wherein MIA PaCa-2 cells (pZWL vector and myrAKT) were treated without serum vehicle or δ-tocotrienol (50 μM) for 24 hours, with and without a 10-hour caspase 8/3 inhibitor pretreatment. Cells were also treated with TRAIL as a positive control. Cells were then harvested, fixed, permeablized and stained with trypan blue.
# To further identify the role of AKT in the apoptotic pathways noted in Example 2, functional overexpression of CA-AKT was analyzed in Mia-PaCa2 pancreatic cancer cells. MIA PaCa-2 cells were treated with pZWL vector and myrAKT, a retroviral vector encoding myristoylated AKT, with or without serum, vehicle, or δ-tocotrienol (40 or 50 μM) for 24 hours, with and without a 10-hour caspase 8 inhibitor pretreatment. Cells were also treated with TRAIL as a positive control. Cells were then harvested, fixed, permeablized and stained with trypan blue.
# The myristoylated AKT rescued δ-tocotrienol suppression PI3K-AKT signaling. The MiaPaCa-2 parental cell lines were stably transfected using constitutively active myristoylated AKT in a pWZL vector construct to generate MiaPaCa-2AKT cells. […] Lastly, pretreatment with caspase 3, 8 and 9 inhibitors rescued tocotrienol induced cell death.
molecule,measurement,setting,value
Cc1cc(O)cc2c1O[C@](C)(CCC[C@H](C)CCC[C@H](C)CCCC(C)C)CC2 [δ-tocopherol],malignant transformation (Soft Agar),[1],no effect
"O=c1[nH]cc(F)c(=O)[nH]1 [5-FU, fluorouracil]",cell death (Trypan Blue),MIA PaCa-2 cells,increased cell death
same,concentration at which the effect became significant vs vehicle,MIA PaCa2 cells,50 µM
"TRAIL: positive control for cell death (protein, UniProt P50591 1-281, looked up) Tumor necrosis factor ligand …: MAMMEVQGGPSLGQTCVLIVIFTVLLQSLCVAVTYVYFTNELKQMQDKYSKSGIACFLKEDDSYWDPNDEESMNSPCWQVKWQLRQLVRKMILRTSEETISTVQEKQQNISPLVRERGPQRVAAHITGTRGRSNTLSSPNSKNEKALGRKINSWESSRSGHSFLSNLHLRNGELVIHEKGFYYIYSQTYFRFQEEIKENTKNDKQMVQYIYKYTSYPDPILLMKSARNSCWSKDAEYGLYSIYQGGIFELKENDRIFVSVTNEHLIDMDHEASFFGAFLVG",cell death,[2],comparable to vehicle
